Source: US20250250269A1, “HETEROCYCLIC GLP-1 AGONISTS” (Gasherbrum Bio, Inc., priority 2022, published 2025)

biological target: T1, GLP-1 Receptor (Homo sapiens, UniProt P43220); experiment: GLP-1R agonist cAMP stimulation assay (HEK293/GLP1R/CRE-LUC cells, Cisbio cAMP dynamic 2 kit); format: cell-based; conditions: HEK293/CRE-Luc cells stably expressing the GLP-1 Receptor, 30 min at 37° C.
T1 construct: host or cells: HEK293/CRE-Luc (HEK293/GLP1R/CRE-LUC)
Method: Activation of GLP-1 receptor is known to stimulate cyclic AMP (cAMP) production in cells which indicates primary coupling to the Gas subunit of the G protein heterotrimeric complex.
To optimize functional activity directed toward Gas coupling, a HEK293/CRE-Luc cell line developed by HDB stably expressing the GLP-1 Receptor was used. 200× concentration of compound working solutions were prepared (Agilent Technologies Bravo) with ½ log serial dilution in 384-well Echo LDV plate (Labcyte, Cat #LP-0200). […] 200× concentration of compound working solutions were moved to 384-well white low volume plate (Greiner, Cat #784075) using Labcyte ECHO550. 1×10^5 cells/mL HEK293/GLP1R/CRE-LUC (HD Biosciences) cell suspensions prepared with assay buffer [DPBS containing 0.5 mM IBMX (Sigma, Cat #15879) and 0.1% BSA (GENVIEW, Cat #FA016-100g)], 10 μL cell suspensions were added to each well of previous generated assay plate which already contains […] compound at 200×concentration using ThermoFisher Multidrop Combi (1000 cells/well). Seal the plate and incubate at 37° C. with 5% CO2 for 30 min.
After incubation the cAMP assay signal was generated using cAMP dynamic 2 Kit (Cisbio). 5 μL cAMP-d2 working solution was added to each well, followed with 5 μL Anti-cAMP antibody-cryptate working solution added to each well using ThermoFisher Multidrop Combi. Incubate at room temperature for 1 hour protected from light. Read the fluorescence at 665 and 615 nm with Reader PerkinElmer EnVision.

T1 sequence (P43220 24-463, species assumed): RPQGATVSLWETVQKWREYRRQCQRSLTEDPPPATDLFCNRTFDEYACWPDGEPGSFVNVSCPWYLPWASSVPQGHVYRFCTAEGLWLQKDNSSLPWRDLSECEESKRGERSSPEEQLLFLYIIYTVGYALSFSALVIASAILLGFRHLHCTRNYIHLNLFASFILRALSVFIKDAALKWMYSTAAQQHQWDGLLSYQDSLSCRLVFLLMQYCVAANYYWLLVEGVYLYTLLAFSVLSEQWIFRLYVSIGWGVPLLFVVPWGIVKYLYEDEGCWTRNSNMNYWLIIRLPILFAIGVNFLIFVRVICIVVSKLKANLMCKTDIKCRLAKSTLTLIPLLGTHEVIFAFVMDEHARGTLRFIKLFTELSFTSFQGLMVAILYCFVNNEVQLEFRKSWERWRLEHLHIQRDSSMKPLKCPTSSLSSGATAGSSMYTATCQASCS

| EC50 [nM] | SMILES |
| --- | --- |
| 1 to 100 | C[C@]1(c2ccc(Cl)cn2)Oc2cccc(C3CCN(Cc4nc5cc(-c6noc(=O)[nH]6)cc(F)c5n4C[C@@H]4CCO4)CC3)c2O1 [Compound 37, 3-(2-((4-((S)-2-(5-chloropyridin-2-yl)-2-methylbenzo[d][1,3]dioxol-4-yl)piperidin-1-yl)methyl)-7-fluoro-1-(((S)-oxetan-2-yl)methyl)-1H-benzo[d]imidazol-5-yl)-1,2,4-oxadiazol-5(4H)-one] |
| 1 to 100 | O=c1[nH]c(-c2cc(F)c3c(c2)nc(CN2CCC(c4cccc(OCc5ccc(Cl)cc5F)n4)CC2)n3C[C@@H]2CCO2)no1 [Compound 38, (S)-3-(2-((4-(6-((4-chloro-2-fluorobenzyl)oxy)pyridin-2-yl)piperidin-1-yl)methyl)-7-fluoro-1-(oxetan-2-ylmethyl)-1H-benzo[d]imidazol-5-yl)-1,2,4-oxadiazol-5(4H)-one] |
| 1 to 100 | CC1(c2ccc(Cl)cc2F)Oc2cccc(C3=CCN(Cc4nc5cc(-c6noc(=O)[nH]6)cc(F)c5n4C[C@@H]4CCO4)CC3)c2O1 (stereo partly drawn) [Compound 39, 3-(2-((4-(2-(4-chloro-2-fluorophenyl)-2-methylbenzo[d][1,3]dioxol-4-yl)-3,6-dihydropyridin-1(2H)-yl)methyl)-7-fluoro-1-(((S)-oxetan-2-yl)methyl)-1H-benzo[d]imidazol-5-yl)-1,2,4-oxadiazol-5(4H)-one] |
| < 1 | Cc1nnc(-c2ccc3c(nc(CN4CCC(c5cccc6c5O[C@@](C)(c5ccc(Cl)cc5F)O6)CC4)n3C[C@@H]3CCO3)c2F)[nH]1 [Compound 40, 2-((4-((S)-2-(4-chloro-2-fluorophenyl)-2-methylbenzo[d][1,3]dioxol-4-yl)piperidin-1-yl)methyl)-4-fluoro-5-(5-methyl-4H-1,2,4-triazol-3-yl)-1-(((S)-oxetan-2-yl)methyl)-1H-benzo[d]imidazole] |
| < 1 | Cc1nnc(-c2cc(F)c3c(c2)nc(CN2CCC(c4cccc5c4O[C@@](C)(c4ccc(Cl)cc4F)O5)CC2)n3C[C@@H]2CCO2)[nH]1 [Compound 41, 2-((4-((S)-2-(4-chloro-2-fluorophenyl)-2-methylbenzo[d][1,3]dioxol-4-yl)piperidin-1-yl)methyl)-7-fluoro-5-(5-methyl-4H-1,2,4-triazol-3-yl)-1-(((S)-oxetan-2-yl)methyl)-1H-benzo[d]imidazole] |
| < 1 | Cc1nnc(-c2cc(F)c3c(c2)nc(CN2CCC(c4cccc5c4O[C@@](C)(c4ccc(Cl)cn4)O5)CC2)n3C[C@@H]2CCO2)[nH]1 [Compound 42, 2-((4-((S)-2-(5-chloropyridin-2-yl)-2-methylbenzo[d][1,3]dioxol-4-yl)piperidin-1-yl)methyl)-7-fluoro-5-(5-methyl-4H-1,2,4-triazol-3-yl)-1-(((S)-oxetan-2-yl)methyl)-1H-benzo[d]imidazole] |
| 1 to 100 | Cc1nnc(-c2cc(F)c3c(c2)nc(CN2CC=C(c4cccc5c4OC(C)(c4ccc(Cl)cc4F)O5)CC2)n3C[C@@H]2CCO2)[nH]1 (stereo partly drawn) [Compound 43, 2-((4-(2-(4-chloro-2-fluorophenyl)-2-methylbenzo[d][1,3]dioxol-4-yl)-3,6-dihydropyridin-1(2H)-yl)methyl)-7-fluoro-5-(5-methyl-4H-1,2,4-triazol-3-yl)-1-(((S)-oxetan-2-yl)methyl)-1H-benzo[d]imidazole] |
| < 1 | C[C@]1(c2ccc(Cl)cc2F)Oc2cccc(C3=CCN(Cc4nc5cc(-c6nnc(C(F)(F)F)[nH]6)ncc5n4C[C@@H]4CCO4)CC3)c2O1 [Compound 44, 2-((4-((S)-2-(4-chloro-2-fluorophenyl)-2-methylbenzo[d][1,3]dioxol-4-yl)-3,6-dihydropyridin-1(2H)-yl)methyl)-3-(((S)-oxetan-2-yl)methyl)-6-(5-(trifluoromethyl)-4H-1,2,4-triazol-3-yl)-3H-imidazo[4,5-c]pyridine] |
